One test concerns the target T1, CXCL12WT (Homo sapiens, UniProt P48061).
T1 construct: made in house
The test can be described thus: 2D NMR (1H-15N HSQC) titration of CXCR4 peptides into CXCL12WT. In kind it is binding. Particulars: for ΔG: ΔG = −RT ln Kd @ 298 K. The procedure: (§1) NMR spectroscopy. All NMR spectra were acquired on a Bruker DRX 600 MHz spectrometer equipped with a ^1H, ^15N, ^13C TXI cryoprobe at 298 K. Experiments were performed with either 50 μM [U-^15N]-CXCL12WT, -CXCL121, or -CXCL122 proteins in a solution containing 25 mM deuterated MES (pH 6.8), 10% (v/v) D2O, and 0.02% (w/v) NaN3. Full-length CXCR41-38 peptide titrations required 20 μM [U-^15N]-CXCL121 and -CXCL122 protein samples. Sulfated CXCR4 peptides were reconstituted at 100 mM in 25 mM deuterated MES, 10% (v/v) D2O, and 0.02% (w/v) NaN3 buffer. Unsulfated CXCR4 peptides were similarly reconstituted to 15 mM. Two separate 4ISIYTSD10 (SEQ ID NO:8) peptide samples were reconstituted at 10 mM and 15 mM peptide in 25 mM deuterated MES, 10% (v/v) D20, 0.02% (w/v) NaN3 buffer, from lyophilized powder.
(§2) Total peptide additions differed for individual peptide titrations but ranged from 0-160 equivalencies. Spectra were processed using in-house scripts and chemical shift tracking was performed using CARA software. Combined ^1H/^15N chemical shift perturbations were calculated as ((5 ΔδH)^2+(ΔδNH)^2)^0.5, where δH and δNH are the amide proton and nitrogen chemical shifts, respectively. Equilibrium dissociation constants (Kd) were determined by non-linear fitting of the combined ^1H/^15NH chemical shift perturbations as a function of peptide concentration to a single-site quadratic equation. For a given interaction, residues with the largest chemical shift perturbations were fitted individually. The resulting Kd values and their respective fitting errors were then averaged to produce the reported affinity and standard deviation for that interaction.

The next test addresses T2, CXCL122 (Homo sapiens, UniProt P48061, A86C/L57C).
T2 construct: made in house
As to the kind of experiment: 2D NMR (1H-15N HSQC) titration of CXCR4 peptides into CXCL122. The format is binding. The following applies: for ΔG: ΔG = −RT ln Kd @ 298 K. The procedure: as §1, §2

The target of the next test is T3, CXCL121 (Homo sapiens, UniProt P48061, I79C/L76C).
T3 construct: made in house
As to the kind of experiment: 2D NMR (1H-15N HSQC) titration of CXCR4 peptides into CXCL121. In kind it is binding. The following applies: for ΔG: ΔG = −RT ln Kd @ 298 K. The procedure:
as §1, §2

Another test has as its target T4, CXCL12WT dimerization (Homo sapiens, UniProt P48061).
T4 construct: made in house
As to the kind of experiment: Intrinsic tryptophan fluorescence polarization assay of CXCL12WT dimerization. The format is binding. Particulars: for coupling energy linking CXCL12 dimerization to sTyr21 pocket binding: thermodynamic cycle. The procedure: Fluorescence polarization assay. Fluorescence polarization (FP) assays were performed on a PTI spectrofluorometer equipped with automated polarizers, using a time base polarization method provided by the program Felix32. […] Experiments were performed in duplicate and the reported dimerization Kd values reflect the average of both experiments.

The test system of a further test is KG1a cells. The test can be described thus: Apoptosis assays in KG1a cells expressing CXCR4-YFP. The format is cell-based, human. The following applies: 100 ng/ml. The method, then:
Apoptosis assays. KG1a (human acute myelogenous leukemia) cells were assayed for CXCL12-dependent apoptosis as previously described. Briefly, CXCR4 expression on KG1a cells was achieved via transient transfection with a plasmid encoding a CXCR4-YFP fluorescent fusion protein. […] Apoptosis was assayed by staining cells with APC-conjugated annexin V to detect cell-surface phosphatidyl serine (BD Biosciences) or Alexaflour-647-conjugated antibody to detect cleaved PARP (BD Biosciences), and the percentage of YFP+ cells undergoing apoptosis was determined by flow cytometry.

A further test has as its system MiaPaCa2 cells. As to the kind of experiment: MiaPaCa2 chemotaxis (Transwell). In kind it is cell-based. Particulars: 6 h stimulation; relative to CXCL12WT. The procedure: MiaPaCa2 chemotaxis. Chemotactic migration of pancreatic cancer MiaPaCa2 cells was performed as previously described using Transwell plates coated with 15 ug/ml collagen. Briefly, MiaPaCa2 cells were serum starved for 2 hours, lifted using enzyme-free dissociation buffer, washed and then counted using a hemocytometer. 100,000 cells in 10 uL of serum free media were plated into the top chamber of each Transwell. The bottom chamber of each Transwell contained each stimulant in 500 uL serum free media. MiaPaCa2 cells were allowed to migrate for 6 hours, after which the cells remaining on the top of the chamber were swabbed out. Plates were then fixed in 4% paraformaldehyde and stained with DAPI. Migrated cells were visualized and counted by fluorescence microscopy, with 5 representative high-powered fields taken per well.

For another test, the system named is THP-1 cells. As to the kind of experiment: THP-1 chemotaxis (Transwell). In kind it is cell-based. Particulars: 3 h stimulation. The method, then:
THP-1 chemotaxis. Chemotaxis experiments were performed using Tranwell ([…]; Costar) in 24-well format. […] THP-1 cells were washed twice and […] cells were added to the upper chamber. Plates were incubated for 3 h at 37° C., 5% CO2. Following incubation, Transwell membranes were removed and cells that migrated into the lower chamber were counted using a TC-10 Automated Cell Counter (BioRad) and hemocytometer. The chemotactic index was calculated as the difference in migrated cell number between those exposed to chemokine and the vehicle control.

In the next test the test system is U-937 cells. As to the kind of experiment: Agarose microdroplet assay of U-937 migration. In kind it is cell-based. The method, then:
Agarose microdroplet assay. The agarose microdroplet assay was performed to determine U-937 cellular migration, as previously described. 0.5×10^6 cells/ml U-937 target cells were harvested and washed in HBSS. Cells were spun at 2,000 rpm and were transferred to a graduated 15 ml glass conical tube. The cell concentration was adjusted in agarose medium, prepared from 2% low melting temperature Seaplaque agarose and medium containing 15% FBS, using a 1:4 volume-to-volume dilution. A 1 μl agarose droplet containing 1-10^5 target cells was placed in the center of each well of a 96-well flat-bottom tissue culture plate, in triplicate, using a gastight 0.05 ml Hamilton syringe (Hamilton Company, Reno, Nev.). Droplets were allowed to harden at 4° C. for 20 min. 200 μl chilled test media was applied to each well. […] The plate was incubated for 18-24 h at 37° C. and 5% CO2. Following incubation, the radius of each droplet was determined and target cell migration was measured at four directional points 900 from one another, using an inverted light microscope equipped with a gridded eyepiece, at 40× total magnification. Percent inhibition of each sample was quantified. The plate was incubated for an additional 24 h to measure recovery, and viability was determined by trypan blue exclusion.
Agarose microdroplet assay. The agarose microdroplet assay was performed to determine U-937 cellular migration, as previously described {AdeCXCL121an, 1980 #1609}. 0.5×10^6 cells/ml U-937 target cells were harvested and washed in HBSS. Cells were spun at 2,000 rpm and were transferred to a graduated 15 ml glass conical tube. […] Following incubation, the radius of each droplet was determined and target cell migration was measured at four directional points 900 from one another, using an inverted light microscope equipped with a gridded eyepiece, at 40× total magnification. Percent inhibition of each sample was quantified. The plate was incubated for an additional 24 h to measure recovery, and viability was determined by trypan blue exclusion.

The subject of the next test is NALM6 cells. As to the kind of experiment: NALM6 chemotaxis (Boyden chamber). In kind it is cell-based. The following applies: 90 min stimulation; relative to CXCL12WT. The method, then:
NALM6 chemotaxis. NALM6 cells were grown in RPMI-1640 supplemented with 10% FBS, 100 U/mL penicillin-streptomycin, 2 mM glutamine, 50 μM […], non-essential amino acids, 1 mM Na-pyruvate and 25 mM HEPES buffer (pH 7.3). Chemotaxis assays were performed in triplicate in 48-well Boyden chambers (NeuroProbe), using 5 μm pore-sized polyvinylpyrrolidone-free polycarbonate membranes. […] Cells ([…] per well) resuspended in chemotaxis medium were added to the upper well and incubated for 90 min at 37° C. in 5% CO2 atmosphere. Cells were removed from the upper part of the membrane with a rubber policeman. Cells attached to the lower side of the membrane were fixed and stained as described. Migrated cells were counted in five randomly selected fields of 1000-fold magnification.
NALM6 chemotaxis. NALM6 cells were grown in RPMI-1640 supplemented with 10% FBS, 100 U/mL penicillin-streptomycin, 2 mM glutamine, 50 μM 2-mercaptoethanol, non-essential amino acids, 1 mM Na-pyruvate and 25 mM HEPES buffer (pH 7.3). Chemotaxis assays were performed in triplicate in 48-well Boyden chambers (NeuroProbe), using 5 μm pore-sized polyvinylpyrrolidone-free polycarbonate membranes. […] Migrated cells were counted in five randomly selected fields of 1000-fold magnification.

The mark [1] stands for this setting: unsulfated vs sulfated Tyr7 peptide.

Values joined by “and” are separate entries in the source; they are usually repeats but may differ in a detail not shown here. Identical values can stand only once. Non-standard residues stand in square brackets, D forms with d. Residues, ends and D or L forms follow the SMILES beside them. sY = N[C@@H](Cc1ccc(OS(=O)(=O)O)cc1)C(=O)O

`CC[C@H](C)[C@H](NC(C)=O)C(=O)N[C@@H](CO)C(=O)N[C@H](C(=O)N[C@@H](Cc1ccc(OS(=O)(=O)O)cc1)C(=O)N[C@H](C(=O)N[C@@H](CO)C(=O)N[C@@H](CC(=O)O)C(N)=O)[C@@H](C)O)[C@@H](C)CC` [4ISIsYTSD10] (Ac-ISI[sY]TSD-NH2): the figures for the “ΔG” value at CXCL12WT, on CXCL122 and on CXCL121 were -3.22 kcal/mol, -4.65 kcal/mol and -3.02 kcal/mol, respectively.

Regarding `CC(=O)N[C@@H](CO)C(=O)N[C@@H](CC(=O)O)C(=O)N[C@@H](CC(N)=O)C(=O)N[C@@H](Cc1ccc(OS(=O)(=O)O)cc1)C(=O)N[C@H](C(=O)N[C@@H](CCC(=O)O)C(=O)N[C@@H](CCC(=O)O)C(N)=O)[C@@H](C)O` [9SDNsYTEE15] (Ac-SDN[sY]TEE-NH2), the “ΔG” value is -4.09 kcal/mol at CXCL12WT, -4.87 kcal/mol on CXCL122 and -3.74 kcal/mol on CXCL121.

For `CSCC[C@H](NC(=O)[C@H](CO)NC(=O)[C@H](CC(=O)O)NC(=O)[C@H](Cc1ccc(OS(=O)(=O)O)cc1)NC(=O)[C@H](CC(=O)O)NC(=O)CNC(=O)[C@H](CO)NC(C)=O)C(N)=O` [18SGDsYDSM24] (Ac-SGD[sY]DSM-NH2), the “ΔG” value on CXCL12WT is -3.74 kcal/mol; at CXCL122, -5.01 kcal/mol; at CXCL121, -3.81 kcal/mol. Besides, the “binding to CXCL122 relative to CXCL12WT or CXCL121” value on CXCL122 (fold stronger) is 20 fold. For the same molecule, the ΔGbind on CXCL122 (pathway 2: binding to dimerized CXCL12, 298 K) is −5.0 kcal mol^−; on CXCL121 (pathway 1: binding to CXCL12 before dimerization, 298 K) it was −3.8 kcal mol^−. For the same molecule, the “binding to CXCL122 relative to the unsulfated variant” value at CXCL122 (sulfated vs unsulfated Tyr21 peptide) is reported as “four-fold stronger”. Further, on CXCL12WT dimerization (by sTyr21 sulfopeptide), the “increase of CXCL12 dimerization affinity” value is “eight-fold”. The “coupling energy linking CXCL12 dimerization to sTyr21 pocket binding” value at CXCL12WT dimerization (first value) was −1.2 kcal mol^−; on CXCL12WT dimerization (second value), −1.0 kcal mol^−.

For Ac-ISIYTSD-NH2 [4ISIYTSD10], the “affinity for CXCL12WT relative to the sTyr7 sulfopeptide” value at CXCL12WT (setting [1]) is given as “two-fold higher affinity”. Further, the entries for the “ΔG” value on CXCL12WT, on CXCL122 and on CXCL121 were -3.71 kcal/mol, -4.60 kcal/mol and -4.03 kcal/mol, respectively. In addition, the “binding to CXCL121 relative to the sTyr7 sulfopeptide” value on CXCL121 (setting [1]) was “roughly five-fold stronger”.

For the molecule Ac-SDNYTEE-NH2 [9SDNYTEE15], the “ΔG” value at CXCL12WT is -3.65 kcal/mol; at CXCL122 it was -4.74 kcal/mol; at CXCL121, -3.50 kcal/mol.

Take Ac-SGDYDSM-NH2 [18SGDYDSM24]: the “ΔG” value is -3.50 kcal/mol on CXCL12WT; -4.2 kcal/mol and -4.20 kcal/mol at CXCL122; -3.85 kcal/mol at CXCL121.

“CXCL121: constitutively monomeric CXCL12 variant with L55C and I58C substitutions (SEQ ID NO:2)”: the “cleavage of PARP” value in the test on KG1a cells was “significantly greater than CXCL122”. The “extension of the effective chemotactic dose” value in the test on MiaPaCa2 cells, with THP-1 cells and with NALM6 cells was “at least 10 fold” in each case. The “effect on U-937 cell migration” value with U-937 cells (all tested concentrations, 18-24 h, serum-containing media) is reported as “significantly enhanced migration”. Further, the “concentration of peak migration enhancement” value with U-937 cells (bell-shaped dose response) was 25 nM.
